Like-named read-outs stand apart in the source and are kept apart here.
How the values were obtained:
[1] = tested on: Acinetobacter calcoaceticus; assay: MIC, 2-fold dilution method in micro-well plate, A. calcoaceticus; assay type: cell-based
[2] = tested on: Citrobacter freundii ATCC 8090; assay: MIC, 2-fold dilution method in micro-well plate, C. freundii; assay type: cell-based
Summary of the method: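 Broth 2-fold microdilution; compounds tested as hydrochloride salts in sterile water. Inoculum from overnight BHI broth culture at 37° C., final about (10^5-10^6)/2 cfu/ml per well; MIC read after incubation at 37° C.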

[3] = tested on: Enterobacter aerogenes ATCC 13048; assay: MIC, 2-fold dilution method in micro-well plate, E. aerogenes; assay type: cell-based; settings: Klebsiella aerogenes
Summary of the method: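 Two-fold broth microdilution of hydrochloride salts dissolved in sterile water (10 mg/ml stock). Inoculum from overnight BHI culture at 37° C, about (10^5–10^6)/2 cfu/ml final in well. MIC read after incubation at 37° C.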

[4] = tested on: Enterobacter cloacae; assay: MIC, 2-fold dilution method in micro-well plate, E. cloacae; assay type: cell-based; settings: read-out: Minimum Inhibitory Concentration
[5] = tested on: Escherichia coli ATCC 25922; assay: MIC, 2-fold dilution method in micro-well plate, E. coli; assay type: cell-based
Summary of the method: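 Broth two-fold microdilution of hydrochloride salts in water against E. coli ATCC 25922 grown overnight in BHI at 37° C. Final inoculum about (10^5 -10^6)/2 cfu/ml; after incubation at 37° C, MIC was recorded.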

[6] = tested on: Haemophilus influenza ATCC 35056; assay: MIC, 2-fold dilution method in micro-well plate, H. influenzae; assay type: cell-based; settings: H. influenzae ATCC35056, 37° C.; read-out: Minimum Inhibitory Concentration
Summary of the method: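 MIC by 2-fold broth microdilution; compounds as hydrochloride salts in sterile water (10 mg/ml stock). Overnight BHI culture inoculated at about (10^5-10^6)/2 cfu/ml final; MIC read after cultivation at 37° C.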

[7] = tested on: Klebsiella pneumoniae ATCC 13883; assay: MIC, 2-fold dilution method in micro-well plate, K. pneumoniae; assay type: cell-based; settings: ATCC13883, read-out: Minimum Inhibitory Concentration
Summary of the method: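 Two-fold broth dilution in micro-wells of compound as hydrochloride salt in water. Overnight BHI culture at 37 °C inoculated to about (10^5–10^6)/2 cfu/ml final. MIC read after incubation at 37 °C.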

[8] = tested on: Proteus vulgaris ATCC 13315; assay: MIC, 2-fold dilution method in micro-well plate, P. vulgaris; assay type: cell-based
Summary of the method: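 Two-fold broth dilution in micro-well plates; compounds tested as hydrochloride salts in water. Bacteria from overnight BHI broth culture at 37 °C inoculated to about (10^5–10^6)/2 cfu/ml final; MIC read after incubation at 37 °C.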

[9] = tested on: Pseudomonas aeruginosa ATCC 27853; assay: MIC, 2-fold dilution method in micro-well plate, P. aeruginosa; assay type: cell-based; settings: P. aerugirnosa ATCC27853, 37° C., read-out: Minimum Inhibitory Concentration
Summary of the method: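 MIC was recorded after 37° C incubation of bacteria with serial two-fold dilutions of compound. Bacteria came from an overnight 37° C BHI culture; the final inoculum was about (10^5-10^6)/2 cfu/ml. Compounds were tested as hydrochloride salts diluted in sterile water from a 10 mg/ml stock.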

[10] = tested on: Salmonella typhimurium ATCC 14028; assay: MIC, 2-fold dilution method in micro-well plate, S. typhimurium; assay type: cell-based; settings: Salmonella enterica, read-out: Minimum Inhibitory Concentration
Summary of the method: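 Twofold broth microdilution with overnight BHI culture at 37 °C; inoculum about (10^5-10^6)/2 cfu/ml in wells. Compounds tested as hydrochloride salts from 10 mg/ml aqueous stock; MIC read after incubation at 37 °C.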

[11] = tested on: Shigella flexneri ATCC 12022; assay: MIC, 2-fold dilution method in micro-well plate, S. flexneri; assay type: cell-based; settings: S. flexneri ATCC12022, 37° C., read-out: Minimum Inhibitory Concentration
Summary of the method: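 Two-fold broth dilution in microwell plates; compounds as hydrochloride salts in sterile water. Overnight BHI-broth culture at 37 °C used as inoculum, giving about (10^5–10^6)/2 cfu/ml per well. MIC read after cultivation at 37 °C.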

[12] = tested on: Shigella sonnei ATCC 25931; assay: MIC, 2-fold dilution method in micro-well plate, S. sonnei; assay type: cell-based; settings: S. sonnei ATCC25931, 37° C., read-out: Minimum Inhibitory Concentration
Summary of the method: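 Broth microdilution with 2-fold serial dilutions of compounds as hydrochloride salts in water. Overnight BHI culture of S. sonnei at 37° C added to give about (10^5-10^6)/2 cfu/ml per well. MIC read after incubation at 37° C.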

[13] = tested on: Serratia marcescens ATCC 8100; assay: MIC, 2-fold dilution method in micro-well plate, S. marcescens; assay type: cell-based
Summary of the method: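 Broth microdilution (2-fold series) of hydrochloride salts in water; S. marcescens from overnight BHI culture at 37 °C inoculated to about (10^5-10^6)/2 cfu/ml. MIC read after cultivation at 37 °C.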

[14] = tested on: Streptococcus faecalis ATCC 19433; assay: MIC, 2-fold dilution method in micro-well plate, S. faecalis ATCC 19433; assay type: cell-based; settings: Enterococcus faecalis; S. faecalis ATCC19433, 37° C.; read-out: Minimum Inhibitory Concentration
Summary of the method: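 Broth microdilution (2-fold series) with test compounds as hydrochloride salts in sterile water; overnight BHI culture at 37 °C inoculated to about (10^5-10^6)/2 cfu/ml per well. MIC read after incubation at 37 °C.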

[15] = tested on: Streptococcus faecalis ATCC 29212; assay: MIC, 2-fold dilution method in micro-well plate, S. faecalis ATCC 29212; assay type: cell-based; settings: Enterococcus faecalis; S. faecalis ATCC29212, 37° C.; read-out: Minimum Inhibitory Concentration
Summary of the method: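 Compounds were tested as hydrochloride salts by 2-fold serial dilution in water in micro-well plates. Final inoculum was about (10^5-10^6)/2 cfu/ml from overnight BHI broth culture. MIC was read after culture at 37° C.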

[16] = tested on: Streptococcus pneumoniae ATCC 6303; assay: MIC, 2-fold dilution method in micro-well plate, S. pneumoniae; assay type: cell-based; settings: S. pneuinoniae ATCC6303, 37° C., read-out: Minimum Inhibitory Concentration
Summary of the method: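 MIC by 2-fold serial microdilution of compounds as hydrochloride salts in water, against a BHI-grown overnight culture. Final inoculum was about (10^5–10^6)/2 cfu/ml. Plates were incubated at 37° C before the minimum inhibitory concentration was read.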

[17] = tested on: Streptococcus pyrogens ATCC 19615; assay: MIC, 2-fold dilution method in micro-well plate, S. pyrogens; assay type: cell-based; settings: S. pyrogenes ATCC19615, 37° C., read-out: Minimum Inhibitory Concentration
Summary of the method: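 Inoculum from overnight 37° C brain-heart infusion culture gave roughly (10^5-10^6)/2 cfu/mL per well against two-fold serial dilutions of hydrochloride-salt compound in water. Lowest concentration inhibiting growth after 37° C incubation taken as MIC.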

[18] = Pharmacokinetic properties in ICR mouse, oral and subcutaneous, Bio-Assay (Agar well method); assay type: in vivo; settings: 40 mg/kg, average of four tests; for AUC / Cmax / Tmax / bioavailability / half-life: blood; for dose excreted: urine, read-out: Urine Recovery
Protocol: The pharmacokinetic properties are tested by orally administrating and subcutaneously injecting a test compound and a substance for control to a ICR Mouse with 22 g±10% weight, drawing blood after 10, 20, 30, 45, 60, 90, 120, 150, 180 and […] and analyzed by Bio-Assay (Agar well method).

[19] = LD50, oral, mice; settings: mouse, in vivo
[20] = A. calcoaceticus ATCC8090 (as in tables), 37° C., read-out: Minimum Inhibitory Concentration
[21] = C. freundii ATCC8090, 37° C., read-out: Minimum Inhibitory Concentration
[22] = ATCC13048, read-out: Minimum Inhibitory Concentration
[23] = E. cloacae ATCC23355 (as in tables), 37° C.
[24] = P. vulgaris ATCC13315, 37° C., read-out: Minimum Inhibitory Concentration
[25] = S. marcescens ATCC8100, 37° C., read-out: Minimum Inhibitory Concentration
[26] = ATCC8090, read-out: Minimum Inhibitory Concentration
[27] = ATCC25922, read-out: Minimum Inhibitory Concentration
[28] = ATCC13315, read-out: Minimum Inhibitory Concentration
[29] = S. typhisurium ATCC14028, 37° C.

| SMILES | MIC [6] [µg/mL] | MIC [7] [µg/mL] | MIC [9] [µg/mL] | MIC [11] [µg/mL] | MIC [12] [µg/mL] | MIC [14] [µg/mL] | MIC [15] [µg/mL] | MIC [16] [µg/mL] | MIC [17] [µg/mL] | AUC ([18]; po, P.O) [ng·h/mL] | Cmax ([18]; po, P.O) [ng/mL] | Tmax ([18]; po, P.O) [h] | bioavailability ([18]; po, P.O) [%] | half-life ([18]; po, P.O) [h] | AUC ([18]; sc, S.C) [ng·h/mL] | Cmax ([18]; sc, S.C) [ng/mL] | Tmax ([18]; sc, S.C) [h] | half-life ([18]; sc, S.C) [h] | dose excreted ([18]; po, P.O) [%] | dose excreted ([18]; sc, S.C) [%] | also measured |
| --- | --- | --- | --- | --- | --- | --- | --- | --- | --- | --- | --- | --- | --- | --- | --- | --- | --- | --- | --- | --- | --- |
| CC1CN(c2nc3c(cc2F)c(=O)c(C(=O)O)cn3-c2ccc(F)cn2)CCN1.Cl (stereo not drawn) [Example 14, 1-(5-fluoro-2-pyridyl)-6-fluoro-7-(3-methyl-1-piperazinyl)-1,4-dihydro-4-oxo-1,8-naphthyridine-3-carboxylic acid hydrochloride] | 1.25 | 1.25 | 1.25 | 0.156 | 0.078 | 5 | 2.5 | 5 | 10 | 12500 | 2120 | 0.87 | 44 | 3.81 | 28100 | 4280 | 0.6 | 7.28 | 58.9 | 21.1 | MIC [1, 20]: 0.625 µg/mL; MIC [2, 21]: 0.625 µg/mL; MIC [3, 22]: 1.25 µg/mL; MIC [4, 23]: 0.625 µg/mL; MIC ([5]; E. coli ATCC25922, 37° C., read-out: Minimum Inhibitory Concentration): 0.313 µg/mL; MIC [8, 24]: 0.625 µg/mL; MIC [10]: 1.25 µg/mL; MIC [13, 25]: 0.313 µg/mL |
| CN1CCN(c2nc3c(cc2F)c(=O)c(C(=O)O)cn3-c2ccc(F)cn2)CC1.Cl [Example 13, 1-(5-fluoro-2-pyridyl)-6-fluoro-7-(4-methyl-1-piperazinyl)-1,4-dihydro-4-oxo-1,8-naphthyridine-3-carboxylic acid hydrochloride] | 0.625 | 0.625 | 1.25 | 0.156 | 0.156 | 5 | 5 | 2.5 | 5 | 41000 | 11500 | 1.12 | 74 | 8.07 | 55500 | 8000 | 0.81 | 11.5 | 19.6 | 30.8 | MIC [1, 20]: 0.313 µg/mL; MIC [2, 26]: 0.156 µg/mL; MIC [3, 22]: 0.625 µg/mL; MIC [4, 23]: 0.313 µg/mL; MIC [5, 27]: 0.156 µg/mL; MIC [8, 28]: 0.625 µg/mL; MIC [10, 29]: 0.313 µg/mL; MIC [13, 25]: 0.313 µg/mL; LD50 [19]: ~1000 mg/kg |
| Cc1c(F)c(N2CCN(C)CC2)cc2c1c(=O)c(C(=O)O)cn2-c1ccc(F)cn1.Cl [Example 28, 5-methyl-7-(4-methyl-1-piperazinyl)-1-(5-fluoro-2-pyridyl)-6-fluoro-1,4-dihydro-4-oxoquinoline-3-carboxylic acid hydrochloride] | 0.313 | 1.25 | 1.25 | 0.625 | 1.25 | 10 | 5 | 10 | 10 | 62400 | 6360 | 0.87 | 81.3 | 7.57 | 76100 | 6940 | 1 | 7.26 | 25.2 | 13.4 | MIC [1, 26]: 1.25 µg/mL; MIC [2, 21]: 2.5 µg/mL; MIC [3, 22]: 0.625 µg/mL; MIC [4]: 0.625 µg/mL; MIC [5, 27]: 1.25 µg/mL; MIC [8, 28]: 0.625 µg/mL; MIC [10]: 1.25 µg/mL; MIC ([13]; ATCC8100, read-out: Minimum Inhibitory Concentration): 1.25 µg/mL |
| CN1CCN(c2cc3c(cc2F)c(=O)c(C(=O)O)cn3-c2ccc(F)cn2)CC1.Cl [Example 18, 1-(5-fluoro-2-pyridyl)-6-fluoro-7-(4-methyl-1-piperazinyl)-1,4-dihydro-4-oxoquinoline-3-carboxylic acid hydrochloride] | 0.625 | 0.625 | 1.25 | 0.625 | 0.625 | 5 | 2.5 | 5 | 5 | 42200 | 9180 | 0.94 | 68.6 | 3.44 | 63400 | 19600 | 1 | 3.15 | 28.1 | 39.9 | MIC [1, 26]: 0.625 µg/mL; MIC [2, 26]: 0.625 µg/mL; MIC ([3]; E. aerogenes ATCC13048, 37° C., read-out: Minimum Inhibitory Concentration): 0.25 µg/mL; MIC [4]: 0.625 µg/mL; MIC [5, 27]: 0.625 µg/mL; MIC [8, 24]: 0.313 µg/mL; MIC [10, 29]: 1.25 µg/mL; MIC [13, 25]: 1.25 µg/mL; LD50 [19]: > 3000 mg/kg |

From patent US5496947A, “Quinolone carboxylic acid derivatives” (Dong Wha Pharmaceutical Industrial Co., Ltd., priority 1994, dated 1996)
